{"source": "patent US11590092B2", "about": "“Skin probiotic” (The Regents of the University of California, priority 2014, dated 2023)", "key": {"P. acnes": {"system": "P. acnes", "experiment": "MBC test of propionic acid against P. acnes", "format": "cell-based, Propionibacterium acnes", "method": "(§1) To determine the minimal bactericidal concentration (MBC) and minimal fungicidal concentration (MFC) of propionic acid, microorganisms (10^6 colony forming units (cfu)/ml) were incubated overnight in media with propionic acid (1.25-2,000 mM) in a 96-well microplate (100 μl per well). The control only received PBS. After incubation, the microorganisms were diluted 1:10-1:10^6 into PBS. The dilutions (5 μl) were spotted onto agar media to count cfu; MBC/MFC were determined at 99.9% killing level. To determine the effect of pH on growth of S. aureus USA300, the bacterium was incubated in TSB at pH 5.8 and 6.8, and TSB with 25 mM propionic acid at pH 5.8 and 6.8 (buffered with 4-(2-hydroxyethyl)-1-piperazineethanesulfonic acid (HEPES)) in a 96-well microplate overnight before spotting onto agar plates."}, "USA300": {"system": "USA300", "experiment": "In vivo skin wound infection with USA300", "design": "species or system ICR mice", "conditions": "for USA300 colonization / growth in the skin lesions: vs controls", "method": "ICR mice (2-3-month-old female) were anesthetized by isoflurane. In each experiment, there were five mice per group. A wound 5 mm in length was made on the dorsal skin after shaving with electrical clippers. Once the skin wound was created, 5 μl of propionic acid (100 mM), PBS (pH 7.1) or PBS (pH 3.5) was applied topically to the wounded areas. The wounds were left uncovered throughout the experimental period. For bacterial infection, USA300 (2×10^6 CFU in PBS) was applied topically to the wounded areas 10 min after application of propionic acid or PBS. For the measurement of the extent of wound closure, a transparent parafilm was put on the top of the wounded skin. The wound area was marked on the parafilm by drawing an area which covered the whole skin wound. The lesion size was measured daily for 8 days was calculated using the ImageJ software [National Institutes of Health (NIH), Bethesda, Md., USA] and expressed as mm^2. Student's t-test was used to determine the significance of the differences between groups of the PBS (pH 7.1)- and propionic acid-treated mice as well as the PBS (pH 7.1)- and PBS (pH 3.5)-treated mice. Data represent the mean±SD from three independent experiments. All experiments using mice were conducted in a Biosafety Level 2 (BSL-2) facility and with accordance to institutional guidelines for animal experiments.\nThe USA300-infected skins treated with propionic acid and its controls were cross-sectioned, stained with hematoxylin and eosin (H&E) (Sigma, St. Louis, Mo.), and viewed on a Bx51 research microscope (Olympus, Melville, N.Y., USA). To determine the bacterial number in infected skin, the whole area of infected skin was excised 72 h after bacterial application. The excised skin was homogenized in 200 μl of sterile PBS with a hand tissue grinder. Bacterial CFUs in the skin were enumerated by plating serial dilutions (1:10^1-1:10^6) of the homogenate on a TSB agar plate. The plate was incubated for 24 h at 37° C. to count colonies.\nICR mice (2-3 month-old females; Harlan Labs, Placentia, Calif., USA) were anesthetized by isoflurane. A 5 mm wounds were made on the dorsal skin following shaving with electrical clippers. Following skin wounding, 5 μl of filter sterilized media obtained by incubating P. acnes (10^5 CFU/ml in 10 ml) with/without glycerol for 17 days or 5 μl of media with glycerol (control) were applied and to the wounded areas. To determine if propionic acid can prevent or mitigate the MRSA infection, 5 μl of 100 mM propionic acid was applied to the wounded areas. Application of PBS/pH (pH 3.5, corresponding to pH for 100 mM propionic acid) or PBS (pH 7.1) to the wounded areas served as controls. The wounds were left uncovered throughout the experimental period. USA300 (2×10^6 CFU in 5 μl PBS) was then applied to the wounds 10 min after application of various media, propionic acid or PBS controls. To measure the extent of wound closure, a transparent parafilm was placed over the wounded skin and the area was marked by outlining the area of the wound. The lesion size (mm^2) was measured daily for 8 days then calculated with ImageJ software (NIH, Bethesda, Md., USA). Five mice per group per experiments were used. A Student's t-test was used to determine the significance of the differences between groups. Data represent the mean±SD from three independent experiments. All experiments using mice were conducted in a biosafety level 2 (BSL-2) facility and in accordance with institutional guidelines for animal experiments. To determine the bacterial counts in infected skin, the infected skin was excised 72 h following bacterial application. The excised skin was weighted and homogenized in 200 μl of sterile PBS with a tissue grinder. Bacterial CFUs in the skin were enumerated by plating serial dilutions (1:10^1-1:10^6) of the homogenate on a TSB agar plate. The plate was incubated for 24 h at 37° C. to count colonies. […]"}, "E. coli": {"system": "E. coli", "experiment": "Minimal bactericidal concentration test against E. coli", "format": "cell-based, Escherichia coli", "conditions": "MBC test", "method": "as §1"}}, "note": "Entries after “also recorded” stand apart in the source; their conditions may differ.", "data": [{"smiles": "CCC(=O)O", "note": "[propionic acid]", "values": [{"measurement": "concentration at which growth inhibition of P. acnes was detectable", "setting": "P. acnes; MBC tests, 5 to 2,000 mM tested", "value": "greater than 1000 mM"}, {"measurement": "growth of P. acnes", "setting": "P. acnes; propionic acid 25 mM", "value": "did not affect the growth"}, {"measurement": "growth of P. acnes", "setting": "P. acnes; propionic acid between 5 and 500 mM, MBC tests", "value": "did not affect the growth"}, {"measurement": "sizes of USA300-infected skin lesions", "setting": "USA300; topical 100 mM propionic acid 10 min before USA300 (2×10^6 CFU), vs PBS", "value": "considerably decreased; also recorded: significantly reduced"}, {"measurement": "bacterial numbers in USA300-infected lesions", "setting": "USA300; topical 100 mM propionic acid, three days after bacterial application (FIG. 10F)", "value": "6.9±0.7×10^7 CFU"}, {"measurement": "bacterial numbers in USA300-infected lesions", "setting": "USA300; topical 100 mM propionic acid, three days after bacterial application (FIG. 11F)", "value": "1.4±1.4×10^7 CFU/g"}, {"measurement": "histological observation (H&E) of inflammatory response in wounds", "setting": "USA300; topical 100 mM propionic acid, vs PBS-treated wounds", "value": "less pronounced inflammatory response; also recorded: attenuated inflammatory response"}, {"measurement": "USA300 colonization / growth in the skin lesions", "setting": "USA300; topical 100 mM propionic acid", "value": "considerably decreased"}, {"measurement": "USA300 colonization / growth in the skin lesions", "setting": "USA300; topical 100 mM propionic acid, listed as Propionic acid", "value": "significantly decreased"}, {"measurement": "concentration that completely killed E. coli", "setting": "E. coli", "value": "≥ 50", "unit": "mM"}, {"measurement": "concentration that effectively suppressed the growth of E. coli", "setting": "E. coli", "value": "greater than 10 mM"}]}]}
